In patent publication EP4786454A1, “HETEROARYL DERIVATIVE AND USE THEREOF” (priority 2023, dated 2025):

Assay: Stability in liver microsomes (human)
Format: in vitro ADME
Details: h (human liver microsomes), 0.5 mg/mL, read-out: MMS Clint
Experimental: The purpose of this study was to evaluate the phase I metabolic stability of the assay sample in liver microsomes from CD-1 mice, Sprague-Dawley (SD) rats, beagle dogs, cynomolgus monkeys, and human.
The animal and human liver microsomes used in this assay system were purchased from Xenotech, Corning, or other qualified suppliers.
Preparation of buffer: 73.21 g of potassium phosphate dibasic trihydrate and 10.78 g of potassium dihydrogen phosphate were dissolved in 4000 mL of ultrapure water. The pH of the solution was adjusted to the range of 7.40 ± 0.10 using 10.0% phosphoric acid or 1.00 M potassium hydroxide. Its final concentration was 100 mM.
Preparation of working solutions: An assay sample powder was prepared into a 10.0 mM stock solution with DMSO, and then further diluted with a suitable organic solvent. The control compounds testosterone, diclofenac, and propafenone were prepared into 10.0 mM stock solutions using DMSO, and then further diluted with a suitable organic solvent.
Preparation of liver microsome solution: Microsomes of various species were diluted with 100 mM potassium phosphate buffer to a working solution of 0.56 mg/mL. The final concentration of microsomes in the reaction system was 0.500 mg/mL. Detailed preparation procedures were described in the experimental records.
Preparation of reduced nicotinamide adenine dinucleotide phosphate (NADPH) solution: An appropriate amount of reduced nicotinamide adenine dinucleotide phosphate was dissolved in magnesium chloride solution, and the mixture was shaken to mix well. The final concentrations in the reaction system were 1.00 mM NADPH and 1.00 mM magnesium chloride, respectively. Detailed preparation procedures were described in the experimental records.
Preparation of stop solution: The stop solution was prepared using acetonitrile containing internal standards (tolbutamide and labetalol). The prepared stop solution was stored at 2.0 to 8.0 °C in a refrigerator. Detailed preparation procedures were described in the experimental records. […]

Compound	CLint scaled at 1 µM [L/h/kg]
CC(C)(C)CC(=O)Nc1nc2c(F)cc(C#N)cn2c1C12CC(C1)C2 [Compound 5]	< 0.516
CC(C)(C)CC(=O)Nc1nc2c(F)cc(C#N)cn2c1C1=CCCC1 [Compound 3]	1.14
CC(C)(C)CC(=O)Nc1nc2c(F)cc(C#N)cn2c1-c1ccc(OC(F)(F)F)cc1 [Compound 1]	1.8
